The values that follow come from patent US20230285227A1, “INGESTIBLE CAPSULES” (Massachusetts Institute of Technology, priority 2022, published 2023).

Several values for one entry are separate records, joined by “and”; a condition that tells them apart may be missing. Equal values may be shown once. Where only a bound is given, the exact number is not on record here.

A short description of data set [1]: Franz cell vancomycin permeability, capsule vs direct dilution in donor well. The settings on record: 25 tissue samples from n=5 animals, control = direct dilution in donor well, p<0.05.
Experimental: Both helical and smooth exteriors were assessed. […] Given inter-animal variability of tissue properties, a ratio of permeability induced by the capsule to the control condition was calculated using a matched-pair format per animal.
Data set [2] in a line: vancomycin permeability in isolated small intestine sections of anesthetized swine, mesenteric venous blood. Conditions: 100 mg vancomycin, capsules vs sham control pills, p<0.001.
Text: In anesthetized swine, sections of the small intestine were isolated to serve as independent testing sites while controlling for animal-specific properties such as hydration status, peristaltic rate, blood pressure, and perfusion.
The nature of data set [3]: FITC-dextran uptake with capsule vs direct application. The source says:
To assay the capability of the capsule to assist in the delivery of larger molecules, fluorescein isothiocyanate-(FITC) dextran having various molecular weights were delivered using the capsule, at various motor frequencies, and compared to direct application (controls).

The conditions of data set [4]: oral insulin, background; cited from earlier work.
Data set [5] is described as follows: oral insulin delivery via capsule or endoscopic spray in the small intestine, blood glucose and insulin monitoring. Format: in vivo, swine. The method, then:
Blood glucose and insulin concentrations were monitored for a 75-minute period with the drug delivery starting at 15 minutes.

As for `CN[C@H](CC(C)C)C(=O)N[C@H]1C(=O)N[C@@H](CC(N)=O)C(=O)N[C@H]2C(=O)N[C@H]3C(=O)N[C@H](C(=O)N[C@H](C(=O)O)c4cc(O)cc(O)c4-c4cc3ccc4O)[C@H](O)c3ccc(c(Cl)c3)Oc3cc2cc(c3O[C@@H]2O[C@H](CO)[C@@H](O)[C@H](O)[C@H]2O[C@H]2C[C@](C)(N)[C@H](O)[C@H](C)O2)Oc2ccc(cc2Cl)[C@H]1O` [vancomycin], in data set [1], the “increase of vancomycin drug permeability with capsule delivery compared to controls” value is “over 10 fold”. The “tissue permeability with capsules relative to control” value in data set [2] is not below 20 times the control.
For the compound “fluorescein isothiocyanate-(FITC) dextran”, the “uptake increase at 40 kDa and 70 kDa” value in data set [3] (molecular weights 40 kDa and 70 kDa) was “greatest increases”. In addition, the “uptake with the capsule compared to direct application” value in data set [3] (molecular weights as high as 150 kDa, various motor frequencies) was “significantly increase uptake”.
Regarding insulin, the oral bioavailability entry in data set [4] is “less than 2.5%”. For the same compound, the “variance of blood glucose from baseline” value in data set [5] (100 units insulin by endoscopic spray in the small intestine (control), n=5) was 16.6 ± 17.3 mg/dL. Besides, the “average blood glucose reduction” value in data set [5] (100 units insulin via the capsule, n=7 animals, 75-minute monitoring) is 55.54 ± 16.1 mg/dL. Moreover, in data set [5] (capsule delivery of insulin), the “uptake dynamics compared to subcutaneous or IV injection” value is “more gradual uptake”. In data set [5] (insulin via the capsule), the “time to changes in plasma glucose levels” value was not above 15 min. The “animals with hypoglycemia (blood glucose<20 mg/dL) necessitating dextrose infusion” value in data set [5] (insulin via the capsule, ensued at 60 minutes) is “three and 3 out of 7”.
